In ChEMBL document CHEMBL3232928, “Fragment-to-hit-to-lead discovery of a novel pyridylurea scaffold of ATP competitive dual targeting type II topoisomerase inhibiting antibacterial agents” (J Med Chem, 2013):
Values after ≈ are worked out from the molar mass of the structure shown. Active and inactive are the calls of the source. No cut-off for these calls is given here.

Assays:
Staphylococcus aureus [1] = test: Inhibition of protein synthesis in methicillin-sensitive wild type Staphylococcus aureus over 1 hr by [14C]leucine incorporation assay; type: functional, organism-based
Staphylococcus aureus [2] = test: Inhibition of protein synthesis in methicillin-sensitive wild type Staphylococcus aureus over 1 hr by [14C]valine incorporation assay; type: functional, organism-based
Streptococcus pneumoniae [3] = test: Inhibition of protein synthesis in Streptococcus pneumoniae D39 over 1 hr by [14C]leucine incorporation assay; type: functional; details: D39, 1 h
Staphylococcus aureus [4] = test: Inhibition of RNA synthesis in methicillin-sensitive wild type Staphylococcus aureus over 1 hr by [3H]uridine incorporation assay; type: functional, organism-based
Staphylococcus aureus [5] = test: Inhibition of fatty acid synthesis in methicillin-sensitive wild type Staphylococcus aureus over 1 hr by [14C]acetic acid incorporation assay; type: functional, organism-based
Streptococcus pneumoniae [6] = test: Inhibition of fatty acid synthesis in Streptococcus pneumoniae D39 over 1 hr by [14C]acetic acid incorporation assay; type: functional; details: D39, 1 h
Streptococcus pneumoniae [7] = test: Inhibition of protein synthesis in Streptococcus pneumoniae D39 over 1 hr by [14C]valine incorporation assay; type: functional; details: D39, 1 h
Staphylococcus aureus [8] = test: Inhibition of cell wall synthesis in methicillin-sensitive wild type Staphylococcus aureus over 1 hr by [14C]N-acetyl glucosamine incorporation assay; type: functional, organism-based
Streptococcus pneumoniae [9] = test: Inhibition of RNA synthesis in Streptococcus pneumoniae D39 over 1 hr by [3H]uridine incorporation assay; type: functional
Streptococcus pneumoniae [10] = test: Inhibition of cell wall synthesis in Streptococcus pneumoniae D39 over 1 hr by [14C]N-acetyl glucosamine incorporation assay; type: functional; details: D39, 1 h
Staphylococcus aureus [11] = test: Inhibition of DNA synthesis in methicillin-sensitive wild type Staphylococcus aureus over 1 hr by [3H]thymidine incorporation assay; type: functional, organism-based
Streptococcus pneumoniae [12] = test: Inhibition of DNA synthesis in Streptococcus pneumoniae D39 over 1 hr by [3H]thymidine incorporation assay; type: functional
[13] = Inhibition of ATPase activity in Escherichia coli ParE by ammonium molybdate/malachite green-based absorbance assay
[14] = Inhibition of ATPase activity in Escherichia coli GyrA/GyrB by ammonium molybdate/malachite green-based absorbance assay
[15] = Inhibition of ATPase activity in Escherichia coli ParC/ParE by ammonium molybdate/malachite green-based absorbance assay
Escherichia coli [16] = test: Antibacterial activity against tolC efflux pump deficient Escherichia coli W3110 assessed as growth inhibition after 18 to 24 hrs by CLSI broth microdilution method; type: functional
Staphylococcus aureus [17] = test: Antibacterial activity against methicillin-sensitive wild type Staphylococcus aureus assessed as growth inhibition after 18 to 24 hrs by CLSI broth microdilution method; type: functional
DNA gyrase subunit B = DNA gyrase subunit B (Staphylococcus aureus, UniProt P0A0K8); test: Inhibition of ATPase activity in Staphylococcus aureus GyrB tetramer in presence of Escherichia coli GyrA by ammonium molybdate/malachite green-based absorbance assay
[18] = Antibacterial activity against Streptococcus pneumoniae D39 NCTC 7466 assessed as growth inhibition after 18 to 24 hrs by CLSI broth microdilution method; type: functional
[19] = Clearance in rat plasma at 10 mg/kg, iv administered 15 mins of infusion measured for 0 to 24 hrs by LC-MS/MS analysis; type: ADME, organism-based; set-up: dose 10 mg/kg, route intravenous
[20] = Unbound fraction in human at 10 uM after 16 hrs by LC-MS/MS analysis; type: ADME; details: plasma
[21] = Octanol-phosphate buffer partition coefficient, log D of the compound at pH 7.4 after 1 hr by shake flask method; type: physicochemical
Moraxella catarrhalis = test: Antibacterial activity against wild type Moraxella catarrhalis ATCC 43617 assessed as growth inhibition after 18 to 24 hrs by CLSI broth microdilution method; type: functional
[22] = Volume of distribution at steady state in rat plasma at 10 mg/kg, iv administered 15 mins of infusion measured for 0 to 24 hrs by LC-MS/MS analysis; type: ADME, organism-based; set-up: dose 10 mg/kg, route intravenous; details: read-out: Vdss
[23] = Antibacterial activity against wild type Haemophilus influenzae Rd KW20 ATCC 51907 assessed as growth inhibition after 18 to 24 hrs by CLSI broth microdilution method; type: functional
[24] = Solubility of the compound; type: physicochemical
Staphylococcus aureus [25] = test: Antibacterial activity against methicillin-resistant and […] Staphylococcus aureus assessed as growth inhibition after 18 to 24 hrs by CLSI broth microdilution method; type: functional
Escherichia coli [26] = test: Antibacterial activity against wild type Escherichia coli W3110 assessed as growth inhibition after 18 to 24 hrs by CLSI broth microdilution method; type: functional
[27] = Antibacterial activity against fluoroquinolone-resistant Streptococcus pneumoniae D39 NCTC 7466 expressing GyrB/ParE T172A mutant assessed as growth inhibition after 18 to 24 hrs by CLSI broth microdilution method; type: functional
Staphylococcus aureus [28] = test: Antibacterial activity against ip dosed Staphylococcus aureus infected in neutropenic mouse thigh model assessed as decrease in bacterial viable counts administered up to 12 hrs relative to vehicle-treated control; type: functional, organism-based; details: Thigh muscle
Staphylococcus aureus [29] = test: Resistance factor, ratio of MIC for Staphylococcus aureus drug resistance mutants at 0.05 ug/ml after 7 days to MIC for wild type methicillin-sensitive Staphylococcus aureus at 0.2 ug/ml after 7 days; type: functional
Staphylococcus aureus [30] = test: Resistance factor, ratio of MIC for Staphylococcus aureus drug resistance mutants at 0.05 ug/ml after 7 days to MIC for wild type methicillin-sensitive Staphylococcus aureus at 0.05 ug/ml after 7 days; type: functional
Staphylococcus aureus [31] = test: Resistance factor, ratio of MIC for Staphylococcus aureus drug resistance mutants at 0.05 ug/ml after 7 days to MIC for wild type methicillin-sensitive Staphylococcus aureus at 0.1 ug/ml after 7 days; type: functional
[32] = Antibacterial activity against fluoroquinolone-resistant Streptococcus pneumoniae D39 NCTC 7466 expressing GyrA S81F/ParC S79Y double mutant assessed as growth inhibition after 18 to 24 hrs by CLSI broth microdilution method; type: functional
[33] = Dissociation constant, pKa of the compound; type: physicochemical
Staphylococcus aureus [34] = test: Antibacterial activity against Staphylococcus aureus infected in neutropenic mouse thigh model assessed as decrease in bacterial viable counts at 300 mg/kg, ip administered up to 12 hrs relative to vehicle-treated control; type: functional; details: route intraperitoneal
[35] = Antibacterial activity against fluoroquinolone-resistant Streptococcus pneumoniae D39 NCTC 7466 expressing ParE/GyrB K143I mutant assessed as growth inhibition after 18 to 24 hrs by CLSI broth microdilution method; type: functional
Staphylococcus aureus [36] = test: Antibacterial activity against ip dosed Staphylococcus aureus infected in neutropenic mouse thigh model assessed as decrease in bacterial viable counts administered up to 12 hrs; type: functional; details: Thigh muscle
[37] = Antibacterial activity against fluoroquinolone-resistant Streptococcus pneumoniae D39 NCTC 7466 expressing GyrA S81F/ParC S79F double mutant assessed as growth inhibition after 18 to 24 hrs by CLSI broth microdilution method; type: functional
[38] = Clearance in mouse; type: ADME, organism-based; details: in vivo
[39] = Volume of distribution at steady state in mouse; type: ADME, organism-based; details: in vivo, read-out: Vdss
[40] = Antibacterial activity against fluoroquinolone-resistant Streptococcus pneumoniae D39 NCTC 7466 expressing GyrA S81Y/ParC S79F double mutant assessed as growth inhibition after 18 to 24 hrs by CLSI broth microdilution method; type: functional
[41] = Antibacterial activity against fluoroquinolone-resistant Streptococcus pneumoniae D39 NCTC 7466 expressing GyrB K143A/ParE T172A double mutant assessed as growth inhibition after 18 to 24 hrs by CLSI broth microdilution method; type: functional
[42] = Antibacterial activity against fluoroquinolone-resistant Streptococcus pneumoniae D39 NCTC 7466 expressing GyrB T172A/ParE T172A double mutant assessed as growth inhibition after 18 to 24 hrs by CLSI broth microdilution method; type: functional
Staphylococcus aureus [43] = test: Antibacterial activity against Staphylococcus aureus infected in neutropenic mouse thigh model assessed as decrease in bacterial viable counts at 300 mg/kg, ip administered up to 12 hrs; type: functional, organism-based; set-up: dose 300 mg/kg
[44] = Antibacterial activity against fluoroquinolone-resistant Streptococcus pneumoniae D39 NCTC 7466 expressing ParE/GyrB T172A mutant assessed as growth inhibition after 18 to 24 hrs by CLSI broth microdilution method; type: functional
Streptococcus pneumoniae [45] = test: microbe, parasite or virus in culture
Description: Antibacterial activity against wild type Streptococcus pneumoniae assessed as growth inhibition after 18 to 24 hrs by CLSI broth microdilution method

DNA gyrase subunit B, sequence (P0A0K8 whole entry): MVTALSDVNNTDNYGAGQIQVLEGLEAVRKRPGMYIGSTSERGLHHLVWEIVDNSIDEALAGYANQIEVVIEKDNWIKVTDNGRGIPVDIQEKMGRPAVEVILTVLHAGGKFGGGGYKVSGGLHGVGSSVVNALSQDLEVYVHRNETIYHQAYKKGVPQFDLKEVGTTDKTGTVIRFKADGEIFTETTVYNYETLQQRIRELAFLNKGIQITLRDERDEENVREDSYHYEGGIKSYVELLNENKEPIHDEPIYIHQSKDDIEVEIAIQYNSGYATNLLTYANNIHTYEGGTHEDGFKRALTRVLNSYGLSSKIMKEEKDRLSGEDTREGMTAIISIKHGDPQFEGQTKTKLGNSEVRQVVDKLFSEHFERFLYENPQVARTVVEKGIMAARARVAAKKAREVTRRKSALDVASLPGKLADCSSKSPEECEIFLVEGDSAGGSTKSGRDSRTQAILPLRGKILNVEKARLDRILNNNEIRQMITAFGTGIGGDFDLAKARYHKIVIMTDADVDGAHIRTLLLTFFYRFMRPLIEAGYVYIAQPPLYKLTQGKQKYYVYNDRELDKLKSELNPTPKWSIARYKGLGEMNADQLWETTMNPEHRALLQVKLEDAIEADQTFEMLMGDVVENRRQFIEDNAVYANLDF

O=C(O)c1cn(C2CC2)c2cc(N3CCNCC3)c(F)cc2c1=O [CIPROFLOXACIN]
IC50 (Staphylococcus aureus [1]): > 174 µM
IC50 (Staphylococcus aureus [2]): > 195 µM
IC50 (Streptococcus pneumoniae [3]): 110 µM
IC50 (Staphylococcus aureus [4]): > 195 µM
IC50 (Staphylococcus aureus [5]): > 195 µM
IC50 (Streptococcus pneumoniae [6]): > 200 µM
IC50 (Streptococcus pneumoniae [7]): > 200 µM
IC50 (Staphylococcus aureus [8]): > 195 µM
IC50 (Streptococcus pneumoniae [9]): > 200 µM
IC50 (Streptococcus pneumoniae [10]): > 200 µM
IC50 (Staphylococcus aureus [11]): 3.9 µM
IC50 (Streptococcus pneumoniae [12]): 28 µM

CCNC(=O)Nc1cc(-c2nc(C(F)(F)F)cs2)c(-c2cncc(C(N)=O)c2)cn1
IC50 [13]: 0.012 µM
IC50 (Staphylococcus aureus [1]): 8.8 µM
IC50 [14]: 0.017 µM
IC50 [15]: 0.96 µM
IC50 (Staphylococcus aureus [2]): 31 µM
IC50 (Streptococcus pneumoniae [3]): 0.86 µM
MIC (Escherichia coli [16]): 1.6 µg/mL (≈ 3.67 µM)
MIC (Staphylococcus aureus [17]): 2.7 µg/mL (≈ 6.19 µM)
IC50 (Staphylococcus aureus [4]): 6.9 µM
IC50 (Staphylococcus aureus [5]): > 200 µM
IC50 (DNA gyrase subunit B): < 0.01 µM
IC50 (Streptococcus pneumoniae [6]): > 20 µM
IC50 (Streptococcus pneumoniae [7]): 1.2 µM
IC50 (Staphylococcus aureus [8]): > 200 µM
MIC [18]: 0.09 µg/mL (≈ 0.206 µM)
clearance [19]: 120 mL/min/kg
fraction unbound at 16 h, 10 µM [20]: 0.36
logD at 1 h [21]: 2
IC50 (Streptococcus pneumoniae [9]): 0.83 µM
MIC (Moraxella catarrhalis): 0.7 µg/mL (≈ 1.6 µM)
Vd [22]: 1.5 L/kg
MIC [23]: 5.5 µg/mL (≈ 12.6 µM)
IC50 (Streptococcus pneumoniae [10]): > 20 µM
solubility [24]: 26 µM (≈ 11.3 µg/mL)
IC50 (Staphylococcus aureus [11]): 1.6 µM
MIC (Staphylococcus aureus [25]): 1.4 µg/mL (≈ 3.21 µM)
IC50 (Streptococcus pneumoniae [12]): 0.46 µM
MIC (Escherichia coli [26]): > 64 µg/mL

CCNC(=O)Nc1cc(-c2nc(C(F)(F)F)cs2)c(-c2cncc(-c3n[nH]c(=O)o3)c2)cn1
IC50 [13]: < 0.01 µM
IC50 [14]: < 0.01 µM
MIC [27]: 0.01 µg/mL (≈ 0.0209 µM)
IC50 [15]: 0.23 µM
Activity (Staphylococcus aureus [28]): Dose-dependent effect
MIC (Escherichia coli [16]): 0.15 µg/mL (≈ 0.314 µM)
MIC (Staphylococcus aureus [17]): 0.04 µg/mL (≈ 0.0838 µM)
IC50 (DNA gyrase subunit B): < 0.01 µM
Ratio (Staphylococcus aureus [29]): 16
Ratio (Staphylococcus aureus [30]): 16
Ratio (Staphylococcus aureus [31]): 16
MIC [32]: 0.0025 µg/mL (≈ 0.00524 µM)
pKa [33]: 6.6
MIC [18]: 0.05 µg/mL (≈ 0.105 µM)
fold change (FC) (Staphylococcus aureus [34]): 3000
MIC [35]: 0.01 µg/mL (≈ 0.0209 µM)
ED50 (Staphylococcus aureus [36]): 200 mg/kg
MIC [37]: 0.0025 µg/mL (≈ 0.00524 µM)
clearance [19]: 36 mL/min/kg
clearance [38]: 74 mL/min/kg
fraction unbound at 16 h, 10 µM [20]: 0.044
Vd [39]: 2.6 L/kg
MIC [40]: 0.0025 µg/mL (≈ 0.00524 µM)
MIC [41]: 0.04 µg/mL (≈ 0.0838 µM)
logD at 1 h [21]: 2
MIC [42]: 0.02 µg/mL (≈ 0.0419 µM)
MIC (Moraxella catarrhalis): 0.04 µg/mL (≈ 0.0838 µM)
Vd [22]: 0.66 L/kg
MIC [23]: 0.69 µg/mL (≈ 1.45 µM)
solubility [24]: 19 µM (≈ 9.07 µg/mL)
Activity (Staphylococcus aureus [43]): Active
MIC (Staphylococcus aureus [25]): 0.06 µg/mL (≈ 0.126 µM)
MIC [44]: 0.01 µg/mL (≈ 0.0209 µM)
MIC (Streptococcus pneumoniae [45]): 0.0025 µg/mL (≈ 0.00524 µM)
MIC (Escherichia coli [26]): > 64 µg/mL
